Experimental data as given in the NIST ThermoML archive (doi:10.1021/je4004806).

Key:
[1] = 101 kPa, Liquid; for viscosity: Capillary tube (Ostwald / Ubbelohde) method; for mass density: Vibrating tube method
[2] = xn = mol fraction of the nth substance listed; conditions: 101 kPa, Liquid, x2 = 0; for viscosity: Capillary tube (Ostwald / Ubbelohde) method; for mass density: Vibrating tube method

CCCCCO [pentan-1-ol]
[1]
Conditions | mass density [kg/m3] | viscosity [mPa·s]
293.15 K | 814.59 | 4.042
298.15 K | 810.93 | 3.518
303.15 K | 807.24 | 3.06
308.15 K | 803.53 | 2.659
313.15 K | 799.79 | 2.334
318.15 K | 796.03 | 2.042
323.15 K | 792.23 | 1.805

CCCCO [butan-1-ol] + CCCCCCCC
[2]
Conditions | mass density [kg/m3] | viscosity [mPa·s]
293.15 K | 809.53 | 2.968
298.15 K | 805.7 | 2.602
303.15 K | 801.86 | 2.292
308.15 K | 797.99 | 2.025
313.15 K | 794.1 | 1.796
318.15 K | 790.18 | 1.59
323.15 K | 786.21 | 1.414

CCCCO [butan-1-ol]
[1]
Conditions | mass density [kg/m3] | viscosity [mPa·s]
293.15 K | 809.53 | 2.968
298.15 K | 805.7 | 2.602
303.15 K | 801.86 | 2.292
308.15 K | 797.99 | 2.025
313.15 K | 794.1 | 1.796
318.15 K | 790.18 | 1.59
323.15 K | 786.21 | 1.414

CCCCCCCC [octane]
[1]
Conditions | mass density [kg/m3] | viscosity [mPa·s]
293.15 K | 702.54 | 0.545
298.15 K | 698.49 | 0.513
303.15 K | 694.44 | 0.485
308.15 K | 690.37 | 0.459
313.15 K | 686.29 | 0.433
318.15 K | 682.19 | 0.412
323.15 K | 678.08 | 0.392

CCCO [propan-1-ol]
[1]
Conditions | mass density [kg/m3] | viscosity [mPa·s]
293.15 K | 803.84 | 2.21
298.15 K | 799.85 | 1.962
303.15 K | 795.81 | 1.746
308.15 K | 791.74 | 1.556
313.15 K | 787.64 | 1.386
318.15 K | 783.55 | 1.242
323.15 K | 779.32 | 1.115

CCCO [propan-1-ol] + CCCCCCCC
[2]
Conditions | mass density [kg/m3] | viscosity [mPa·s]
293.15 K | 803.84 | 2.21
298.15 K | 799.85 | 1.962
303.15 K | 795.81 | 1.746
308.15 K | 791.74 | 1.556
313.15 K | 787.64 | 1.386
318.15 K | 783.55 | 1.242
323.15 K | 779.32 | 1.115

CCO [ethanol]
[1]
Conditions | mass density [kg/m3]
293.15 K | 790.91
298.15 K | 786.6
303.15 K | 782.28
308.15 K | 777.94
313.15 K | 773.56
318.15 K | 769.15
323.15 K | 764.69
